# Patent publication US20260327221A1, “INHIBITORS OF CYCLIC GMP-AMP SYNTHASE AND USES THEREOF” (Ventus Therapeutics U.S., Inc., priority 2023, published 2026)
# Target: hcGAS (Homo sapiens, UniProt Q8N884)
# Test: hcGAS LCMS assay (direct measurement of cGAMP production by LC/MS)
# Assay type: biochemical
# Conditions: 4 h incubation with enzyme and substrates; cGAMP production by LC/MS; class symbols; read-out: hcGAS LCMS IC50
# Procedure: cGAS catalyzes the cyclization of ATP and GTP to produce cGAMP, which is the activating ligand of STING. Human cGAS (hcGAS) inhibition can thus be quantified by measuring how much cGAMP is formed either indirectly, by monitoring ATP-depletion as in the hcGAS Kinase-Glo assay (as described below), or directly, such as using the hcGAS LCMS assay (as described below).
# 2. hGAS LCMS Assay Conditions
# Compounds were tested for their hcGAS inhibition activity using direct measurement of cGAMP production by LC/MS. Briefly, compounds were incubated with enzyme and substrates for 4 hours (see Table C), before the reaction was stopped with 3 volumes of 70/30 Acetonitrile/H2O mix containing 0.15 uM cGAMP-^13C10^15N5 as internal standard and mixed for 5 mmn. After centrifugation (3700 rpm, […], […]), 100 uL of each reaction was collected and mixed to equal volume of acetonitrile (MeCN). Samples were then analyzed on Qexactive (Column: XBridge BEH Amide Column, 130 Å, 3.5 μm, 3 mm×50 mm. Mobile phase A: 10 mM Ammonium acetate in 95/5 H2O/MeCN (0.5% DMSO), Mobile phase B: MeCN (0.5% DMSO).
# The results of the assay, expressed as IC50 values, are reported in Table D with the following designations: A represents an IC50 value <0.005 μM (with A1 representing an IC50 value <0.0005 μM, A2 representing an IC50 value ≥0.0005 μM and <0.001 μM, and A3 representing an IC50 value ≥0.001 μM and <0.005 μM); B represents an IC50 value ≥0.005 μM and <0.02 μM; C represents an IC50 value ≥0.02 μM and <0.06 μM; and D represents an IC50 value ≥0.06 μM.
# Chain of hcGAS (Q8N884 whole entry): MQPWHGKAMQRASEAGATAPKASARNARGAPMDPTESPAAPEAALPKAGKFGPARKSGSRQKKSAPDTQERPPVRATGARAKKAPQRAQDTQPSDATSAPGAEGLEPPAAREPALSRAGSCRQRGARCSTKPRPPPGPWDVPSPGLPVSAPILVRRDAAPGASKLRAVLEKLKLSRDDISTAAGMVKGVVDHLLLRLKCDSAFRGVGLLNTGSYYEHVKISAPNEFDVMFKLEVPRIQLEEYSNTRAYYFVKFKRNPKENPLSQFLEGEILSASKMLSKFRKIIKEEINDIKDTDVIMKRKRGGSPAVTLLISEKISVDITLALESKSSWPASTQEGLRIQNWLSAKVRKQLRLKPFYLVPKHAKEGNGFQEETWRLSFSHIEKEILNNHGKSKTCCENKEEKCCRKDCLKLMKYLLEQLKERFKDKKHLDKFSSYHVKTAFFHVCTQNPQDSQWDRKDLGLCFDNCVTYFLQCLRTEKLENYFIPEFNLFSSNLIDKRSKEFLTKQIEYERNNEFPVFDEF
row,Structure (SMILES),IC50
1,COCC(CN1CCSCC1)Oc1c(-c2c(OC)cccc2OC)cc(C(=O)Nc2nnc(-n3nccc3N)s2)oc1=O (centres unmarked) [78A*/78B*],5 to 20 nM
2,"COc1cccc(OC)c1-c1cc(C(=O)Nc2nnc(-n3nccc3N)s2)oc(=O)c1O[C@H](CO)CN1CCSCC1 [81A*, (S)-N-(5-(5-amino-1H-pyrazol-1-yl)-1,3,4-thiadiazol-2-yl)-4-(2,6-dimethoxyphenyl)-3-((1-hydroxy-3-thiomorpholinopropan-2-yl)oxy)-2-oxo-2H-pyran-6-carboxamide]",1 to 5 nM
3,"COc1cccc(OC)c1-c1cc(C(=O)Nc2nnc(-n3nccc3N)s2)oc(=O)c1O[C@@H](CO)CN1CCSCC1 [81B*, (R)-N-(5-(5-amino-1H-pyrazol-1-yl)-1,3,4-thiadiazol-2-yl)-4-(2,6-dimethoxyphenyl)-3-((1-hydroxy-3-thiomorpholinopropan-2-yl)oxy)-2-oxo-2H-pyran-6-carboxamide]",1 to 5 nM
4,"COc1cccc(OC)c1-c1cc(C(=O)Nc2nnc(-n3nccc3N)s2)oc(=O)c1OCCN1CCO[C@H](CSC)C1 [82A*, (S)-N-(5-(5-amino-1H-pyrazol-1-yl)-1,3,4-thiadiazol-2-yl)-4-(2,6-dimethoxyphenyl)-3-(2-(2-((methylthio)methyl)morpholino)ethoxy)-2-oxo-2H-pyran-6-carboxamide]",1 to 5 nM
5,COCC(CN1CCOCC1)Oc1c(-c2c(OC)cccc2OC)cc(C(=O)Nc2nnc(-n3nccc3N)s2)oc1=O (centres unmarked) [84A*/84B*],5 to 20 nM
6,"COC[C@H](CO)COc1c(-c2c(OC)cccc2OC)cc(C(=O)Nc2nnc(-n3nccc3N)s2)oc1=O [92B*, (S)-N-(5-(5-amino-1H-pyrazol-1-yl)-1,3,4-thiadiazol-2-yl)-4-(2,6-dimethoxyphenyl)-3-(3-hydroxy-2-(methoxymethyl)propoxy)-2-oxo-2H-pyran-6-carboxamide]",1 to 5 nM
7,COc1cccc(OC)c1-c1cc(C(=O)Nc2nnc(-n3nccc3N)s2)oc(=O)c1OCCN1CCSCC1CO (centres unmarked) [96A*/96B*],1 to 5 nM
8,COc1cccc(OC)c1-c1cc(C(=O)Nc2nnc(-n3nccc3N)s2)oc(=O)c1OCC1(OC)CCC(O)CC1 (centres unmarked) [99A*/99B*],1 to 5 nM
9,COc1cccc(OC)c1-c1cc(C(=O)Nc2nnc(-n3nccc3N)s2)oc(=O)c1OCCN1CCSC(CO)C1 (centres unmarked) [100A*/100B*],1 to 5 nM
10,"COc1cccc(OC)c1-c1cc(C(=O)Nc2nnc(-n3nccc3N)s2)oc(=O)c1OCCOC1CC(O)C1 (centres unmarked) [102A*, N-(5-(5-amino-1H-pyrazol-1-yl)-1,3,4-thiadiazol-2-yl)-4-(2,6-dimethoxyphenyl)-3-(2-((1s,3s)-3-hydroxycyclobutoxy)ethoxy)-2-oxo-2H-pyran-6-carboxamide]",0.5 to 1 nM
11,"COc1cccc(OC)c1-c1cc(C(=O)Nc2nnc(-n3nccc3N)s2)oc(=O)c1O[C@H](CO)C1CC1 [106A*, (S)-N-(5-(5-amino-1H-pyrazol-1yl)-1,3,4-thiadiazol-2-yl)-3-(1-cyclopropyl-2-hydroxyethoxy)-4-(2,6-dimethoxyphenyl)-2-oxo-2H-pyran-6-carboxamide]",1 to 5 nM
12,"COc1cccc(OC)c1-c1cc(C(=O)Nc2nnc(-n3nccc3N)s2)oc(=O)c1O[C@@H](CO)C1CC1 [106B*, (R)-N-(5-(5-amino-1H-pyrazol-1-yl)-1,3,4-thiadiazol-2-yl)-3-(1-cyclopropyl-2-hydroxyethoxy)-4-(2,6-dimethoxyphenyl)-2-oxo-2H-pyran-6-carboxamide]",1 to 5 nM
13,"COc1c(-c2ccccc2S(C)(=O)=O)cc(C(=O)Nc2nnc(-n3nccc3C)s2)oc1=O [Compound 2, 3-methoxy-N-(5-(5-methyl-1H-pyrazol-1-yl)-1,3,4-thiadiazol-2-yl)-4-(2-(methylsulfonyl)phenyl)-2-oxo-2H-pyran-6-carboxamide]",5 to 20 nM
14,"COc1c(-c2ccccc2P(C)(C)=O)cc(C(=O)Nc2nnc(-n3nccc3C)s2)oc1=O [Compound 3, 4-(2-(dimethylphosphoryl)phenyl)-3-methoxy-N-(5-(5-methyl-1H-pyrazol-1-yl)-1,3,4-thiadiazol-2-yl)-2-oxo-2H-pyran-6-carboxamide]",20 to 60 nM
15,"COCCOc1c(-c2ncccc2OC)cc(C(=O)Nc2nnc(-n3nccc3C)s2)oc1=O [Compound 4, 3-(2-methoxyethoxy)-4-(3-methoxypyridin-2-yl)-N-(5-(5-methyl-1H-pyrazol-1-yl)-1,3,4-thiadiazol-2-yl)-2-oxo-2H-pyran-6-carboxamide]",5 to 20 nM

# Results, then the molecule that gave them:
row,IC50,Structure (SMILES)
1,0.5 to 1 nM,"COc1cccc(OC)c1-c1cc(C(=O)Nc2nnc(-n3nccc3N)s2)oc(=O)c1OC[C@@H]1CCCO1 [56A*, (S)-N-(5-(5-amino-1H-pyrazol-1-yl)-1,3,4-thiadiazol-2-yl)-4-(2,6-dimethoxyphenyl)-2-oxo-3-((tetrahydrofuran-2-yl)methoxy)-2H-pyran-6-carboxamide]"
2,0.5 to 1 nM,"COc1cccc(OC)c1-c1cc(C(=O)Nc2nnc(-n3nccc3N)s2)oc(=O)c1OC[C@H]1CCCO1 [56B*, (R)-N-(5-(5-amino-1H-pyrazol-1-yl)-1,3,4-thiadiazol-2-yl)-4-(2,6-dimethoxyphenyl)-2-oxo-3-((tetrahydrofuran-2-yl)methoxy)-2H-pyran-6-carboxamide]"
3,1 to 5 nM,"COc1cccc(OC)c1-c1cc(C(=O)Nc2nnc(-n3nccc3N)s2)oc(=O)c1OC[C@@H](CO)N1CCSCC1 [79A*, (R)-N-(5-(5-amino-1H-pyrazol-1-yl)-1,3,4-thiadiazol-2-yl)-4-(2,6-dimethoxyphenyl)-3-(3-hydroxy-2-thiomorpholinopropoxy)-2-oxo-2H-pyran-6-carboxamide]"
4,1 to 5 nM,"COc1cccc(OC)c1-c1cc(C(=O)Nc2nnc(-n3nccc3N)s2)oc(=O)c1OC[C@H](CO)N1CCSCC1 [79B*, (S)-N-(5-(5-amino-1H-pyrazol-1-yl)-1,3,4-thiadiazol-2-yl)-4-(2,6-dimethoxyphenyl)-3-(3-hydroxy-2-thiomorpholinopropoxy)-2-oxo-2H-pyran-6-carboxamide]"
5,0.5 to 1 nM,"COc1cccc(OC)c1-c1cc(C(=O)Nc2nnc(-n3nccc3N)s2)oc(=O)c1OCCN1CCO[C@@H](CSC)C1 [82B*, (R)-N-(5-(5-amino-1H-pyrazol-1-yl)-1,3,4-thiadiazol-2-yl)-4-(2,6-dimethoxyphenyl)-3-(2-(2-((methylthio)methyl)morpholino)ethoxy)-2-oxo-2H-pyran-6-carboxamide]"
6,0.5 to 1 nM,COc1cccc(OC)c1-c1cc(C(=O)Nc2nnc(-n3nccc3N)s2)oc(=O)c1OCC1CSCCO1 (centres unmarked) [83A*/83B*]
7,0.5 to 1 nM,COc1cccc(OC)c1-c1cc(C(=O)Nc2nnc(-n3nccc3N)s2)oc(=O)c1OCC(O)CN1CCSCC1 (centres unmarked) [91A*/91B*]
8,0.5 to 1 nM,"COC[C@@H](CO)COc1c(-c2c(OC)cccc2OC)cc(C(=O)Nc2nnc(-n3nccc3N)s2)oc1=O [92A*, (R)-N-(5-(5-amino-1H-pyrazol-1-yl)-1,3,4-thiadiazol-2-yl)-4-(2,6-dimethoxyphenyl)-3-(3-hydroxy-2-(methoxymethyl)propoxy)-2-oxo-2H-pyran-6-carboxamide]"
9,0.5 to 1 nM,"COc1cccc(OC)c1-c1cc(C(=O)Nc2nnc(-n3nccc3N)s2)oc(=O)c1OCCN1C[C@@H]2C[C@H]1CS2 [93A*, 3-(2-((1S,4S)-2-thia-5-azabicyclo[2.2.1]heptan-5-yl)ethoxy)-N-(5-(5-amino-1H-pyrazol-1-yl)-1,3,4-thiadiazol-2-yl)-4-(2,6-dimethoxyphenyl)-2-oxo-2H-pyran-6-carboxamide]"
10,0.5 to 1 nM,"COc1cccc(OC)c1-c1cc(C(=O)Nc2nnc(-n3nccc3N)s2)oc(=O)c1OCCN1C[C@H]2C[C@@H]1CS2 [93B*, 3-(2-((1R,4R)-2-thia-5-azabicyclo[2.2.1]heptan-5-yl)ethoxy)-N-(5-(5-amino-1H-pyrazol-1-yl)-1,3,4-thiadiazol-2-yl)-4-(2,6-dimethoxyphenyl)-2-oxo-2H-pyran-6-carboxamide]"
11,0.5 to 1 nM,"COc1c(-c2ccccc2C#N)cc(C(=O)Nc2nnc(-n3nccc3C)s2)oc1=O [Compound 1, 4-(2-cyanophenyl)-3-methoxy-N-(5-(5-methyl-1H-pyrazol-1-yl)-1,3,4-thiadiazol-2-yl)-2-oxo-2H-pyran-6-carboxamide]"
12,< 0.5 nM,"COCCOc1c(-c2c(OC)cccc2OC)cc(C(=O)Nc2nnc(-c3c(Cl)ccn3C)s2)oc1=O [Compound 5, N-(5-(3-chloro-1-methyl-1H-pyrrol-2-yl)-1,3,4-thiadiazol-2-yl)-4-(2,6-dimethoxyphenyl)-3-(2-methoxyethoxy)-2-oxo-2H-pyran-6-carboxamide]"
13,0.5 to 1 nM,"COCCOc1c(-c2c(OC)cccc2OC)cc(C(=O)Nc2nnc(-n3nccc3N)s2)oc1=O [Compound 6, N-(5-(5-amino-1H-pyrazol-1-yl)-1,3,4-thiadiazol-2-yl)-4-(2,6-dimethoxyphenyl)-3-(2-methoxyethoxy)-2-oxo-2H-pyran-6-carboxamide]"

# Same assay, conditions: hcGAS 0.5 nM; ATP 100 μM; GTP 100 μM; dsDNA 25 nM; pH 7.4; 4 h incubation; read-out: hcGAS inhibition IC50 (activity class, Table D)
row,IC50,Structure (SMILES)
1,0.5 to 1 nM,"COc1c(-c2ccccc2C#N)cc(C(=O)Nc2nnc(-n3nccc3C)s2)oc1=O [Compound 1, 4-(2-cyanophenyl)-3-methoxy-N-(5-(5-methyl-1H-pyrazol-1-yl)-1,3,4-thiadiazol-2-yl)-2-oxo-2H-pyran-6-carboxamide]"
